17 compounds from US9914735B2, “Heteroaryl Syk inhibitors” (Boehringer Ingelheim International GmbH, priority 2014, dated 2018) can be followed below.

Read-outs that look alike come from different tables or passages of the source.

The target of one data set is FLT3 (Homo sapiens (Human), UniProt P36888). Put plainly: FLT3 kinase test (Z'-LYTE). In kind it is biochemical. How it is done:
The activity of FLT3 is measured using the Z′-LYTETM assay technology from Invitrogen (#PV3191)
The reaction is started by addition of 2.5 μl of the 4×ATP solution.
Positive controls are reaction mixtures containing no test compound; negative controls (blanks) are reaction mixtures containing no kinase. As a further control, the phosphopeptide solution is added to wells without kinase (=100% phosphorylation control).
The reaction is performed for 1 h at room temperature before 5 μl of the development solution is added. After a further incubation for 1 h at room temperature 5 μl of the stop reagent is added.
The output text file is evaluated in an “MS-Excel—VB-Makro” and “GraphPadPrism” (Version 5) (GraphPad Software Inc.) is used to calculate the results. Data for the inhibition of FLT3 are reported in M. data for the inhibition of the protease are reported in % CTL.

For the next data set, the target named is Human GSK3beta (Homo sapiens (Human), UniProt P49841). Put plainly: GSK 3beta kinase test (Z'-LYTE). In kind it is biochemical. To be noted: read-out: IC50 in μM (GSK3beta-Inhibition). As for the experimental part: Human GSK3beta (expressed and prified from SF21 cells) is obtained from the University Dundee/Scotland (Dr. James Hastie—Dept. of Biochemistry) in 50 mM Tris (pH7.5); 150 mM NaCl; 0.1 mM EGTA, 270 mM Succrose, 0.1% β-mercaptoethanol, 1 mM benzamidine, 0.2 mM PMSF; sequence see below). The enzyme is diluted to 3.56 μM (168 μg/ml) in enzyme dilution buffer and 6 μl aliquots are stored at −80° C.
The activity of GSK3 kinase protein is measured using the Z′-LYTETM assay technology from Invitrogen (# PV3324).
The assay is performed in 384 black plates from Corning (#3676) in a final volume of 10 μl by adding 5 μl of kinase peptide mix and 2.5 μl of compound dilution. The reaction is started by addition of 2.5 μl of the 4×ATP solution.
Positive controls are reaction mixtures containing no test compound; negative controls (blanks) are reaction mixtures containing no ATP. As a further control, the phosphopeptide solution is added to wells without kinase and without ATP (=100% phosphorylation control).
The non inhibited kinase reaction will result in a phosphorylation corresponding to 20%-30% of the phosphorylation control.
The reaction is performed 1 h at room temperature. After 1h 5 μl of the development solution is added. After a further incubation for 1 h at room temperature 5 μl of the stop reagent is added. Finally the plates are read on a Flex Station II 384 (Molecular Devices).
The output text file is evaluated in an “MS-Excel—VB-Makro” and “GraphPadPrism” (Version 5) (GraphPad Software Inc.) is used to calculate the results. Data for the inhibition of GSK3beta are reported in M. data for the inhibition of the protease are reported in % CTL.

The target of data set [1] is Recombinant human Aurora B (amino acids 1-344) (Homo sapiens (Human), UniProt Q96GD4). Put plainly: Aurora B kinase test (ADP Glo luminescence). In kind it is biochemical. How it is done: The activity of the Aurora B kinase protein was determined using the ADP Glo® Luminescence Kinase test (Promega; V9103X).
Serial Dilution is done in 1:10 steps in 100% DMSO.
Then 20 μl Kinase detection mix (Detection Buffer #V913B Promega; Kinase Detection Substrate #V914B Promega) were added and incubated for 40 minutes at room temperature.
(§1) The output file of the reader is a csv file that contains the well number and measured RLU. For data evaluation and calculation, the measurement of the negative control was set as 0% ctrl and the measurement of the positive control was set as 100% ctrl. Based on this values the % value for the measurement of each substance concentration was calculated using an Assay Explorer software (Accelrys). Normally, the % ctrl values calculated are between 0% and 100% values but may also occur outside these limits in individual cases based on variability or compound characteristics. The IC50 values were calculated from the % ctrl values using Assay Explorer software. Calculation: [y=(a−d)/(1+(x/c)^b)+d], a=low value, d=high value; x=conc M; c=IC50 M; b=hill; y=% ctrl.

Data set [2] in a line: Human liver microsomal stability test. In kind it is in vitro ADME. To be noted: for microsomal stability Cl [% Qh]: human liver microsomes, Qh = liver blood flow. How it is done: The metabolic degradation for a specific SYK-inhibitor is performed at 37° C. with pooled human liver microsomes (human liver microsomes are commercially available as “BD UltraPool™” by Corning Life Sciences, Fogostraat 12, 1060 LJ Amsterdam, The Netherlands). The final incubation volume of 100 μl per time point contains TRIS buffer pH 7.6 at RT (0.1 M), magnesium chloride (5 mM), microsomal protein (1 mg/ml) and the test compound at a final concentration of 1 μM.
Following a short preincubation period at 37° C., the reaction is initiated by addition of beta-nicotinamide adenine dinucleotide phosphate in its reduced form (NADPH, 1 mM) and terminated by transfering an aliquot into solvent after different time points. Additionally, the NADPH-independent degradation is monitored in incubations without NADPH, terminated at the last time point.
The quenched (terminated) incubations are then pelleted by centrifugation (10000 g, 5 min).
An aliquot of the supernatant is assayed by LC-MS/MS for the remaining amount of parent compound. The half-life (t1/2 INVITRO) is determined by the slope of the semilogarithmic plot of the concentration-time profile.
The intrinsic clearance (CL_[…]) is calculated by considering the amount of protein in the incubation: CL_[…][μl/min/mg protein]=(Ln 2/(t1/2 INVITRO[min]*protein content[mg/ml]))*1000
The protein content [mg/ml] was determined with the “Bicinchoninic Acid Kit” of Sigma Aldrich (commercially available).
The upscaled intrinsic Clearance (CL_UP_INT) is calculated by considering the liver weight [g liver/kg body weight] and the microsomal recovery [mg protein/g liver]: CL_UP_INT[ml/min/kg]=0.001*CL_[…]*liver weight*microsomal recovery • with microsomal recovery=45 mg protein/g liver • with liver weight=25.7 g liver/kg body weight
The percent hepatic blood flow (% Qh) is finally calculated by considering the human liver blood flow Q [ml/min/kg]: % Qh[%]=((Q*CL_UP_INT)/(Q+CL_UP_INT)/Q)*100 • with liver blood flow (Q)=20.7 ml/min/kg.

For data set [3], the target named is Recombinant human Syk (amino acids 342-635), GST-Syk kinase fusion protein (Homo sapiens (Human), UniProt P43405). The data set is described as follows: Syk kinase test (Kinase Glo luminescence). In kind it is biochemical. The following applies: Table 1; read-out: SYK-inhibition IC50-value. How it is done: as §1, with “measured relative light units (RLU).” for “measured RLU.”, “as 100%” for “as 0%”, “as 0%” for “as 100%”, “software. Calculation:[y=(a−d)/(1+(x/c)^b)+d]” for “software. Calculation: [y=(a−d)/(1+(x/c)^b)+d],”

The mark [4] stands for this setting: read-out: IC50 in μM (FLT3-Inhibition).
The mark [5] stands for this setting: read-out: IC50 in μM (AURB-Inhibition).
Setting [6] is: Table 1, read-out: FLT3-inhibition IC50-value.
Setting [7] is: Table 1, read-out: AURB-inhibition IC50-value.
Setting [8] is: read-out: IC50-values with regard to AURB.

Sequence of FLT3 (P36888 27-993): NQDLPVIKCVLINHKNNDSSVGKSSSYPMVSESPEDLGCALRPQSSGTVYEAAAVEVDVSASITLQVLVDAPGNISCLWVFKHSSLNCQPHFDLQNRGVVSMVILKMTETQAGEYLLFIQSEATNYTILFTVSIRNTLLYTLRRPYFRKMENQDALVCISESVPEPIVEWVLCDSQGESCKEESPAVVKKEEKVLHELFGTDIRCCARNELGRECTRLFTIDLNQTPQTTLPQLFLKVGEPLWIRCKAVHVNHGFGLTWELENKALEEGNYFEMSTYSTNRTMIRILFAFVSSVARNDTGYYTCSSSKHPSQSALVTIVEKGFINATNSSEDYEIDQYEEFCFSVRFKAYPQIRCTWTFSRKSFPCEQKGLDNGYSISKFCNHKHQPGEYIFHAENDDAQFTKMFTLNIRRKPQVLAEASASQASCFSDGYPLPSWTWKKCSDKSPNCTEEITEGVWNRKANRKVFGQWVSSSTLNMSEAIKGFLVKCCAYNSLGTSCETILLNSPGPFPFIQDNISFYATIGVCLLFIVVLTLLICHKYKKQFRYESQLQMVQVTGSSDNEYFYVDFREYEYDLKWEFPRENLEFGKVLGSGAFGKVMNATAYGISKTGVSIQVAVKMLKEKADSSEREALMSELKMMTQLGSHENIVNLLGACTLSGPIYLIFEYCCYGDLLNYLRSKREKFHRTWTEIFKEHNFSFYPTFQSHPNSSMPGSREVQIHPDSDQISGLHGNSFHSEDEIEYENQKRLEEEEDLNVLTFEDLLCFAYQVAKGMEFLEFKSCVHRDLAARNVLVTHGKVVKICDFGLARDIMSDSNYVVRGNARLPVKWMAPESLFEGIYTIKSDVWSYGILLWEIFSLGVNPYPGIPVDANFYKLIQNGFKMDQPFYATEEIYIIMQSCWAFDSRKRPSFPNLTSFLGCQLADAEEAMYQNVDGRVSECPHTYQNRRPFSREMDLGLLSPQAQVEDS
Sequence of Human GSK3beta (P49841 whole entry): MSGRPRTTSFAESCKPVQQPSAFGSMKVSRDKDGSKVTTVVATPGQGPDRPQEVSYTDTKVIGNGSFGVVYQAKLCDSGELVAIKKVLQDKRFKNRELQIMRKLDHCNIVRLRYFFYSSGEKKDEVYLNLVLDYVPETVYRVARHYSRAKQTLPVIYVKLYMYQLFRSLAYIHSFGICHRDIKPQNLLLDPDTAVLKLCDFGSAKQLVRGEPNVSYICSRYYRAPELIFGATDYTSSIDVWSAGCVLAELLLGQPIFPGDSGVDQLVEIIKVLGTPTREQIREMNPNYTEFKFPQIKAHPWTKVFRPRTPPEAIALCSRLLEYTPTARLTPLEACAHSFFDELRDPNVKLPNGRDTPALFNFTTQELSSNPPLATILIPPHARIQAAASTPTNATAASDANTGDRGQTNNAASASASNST
Sequence of Recombinant human Aurora B (amino acids 1-344) (Q96GD4 whole entry, the tested form may be a part): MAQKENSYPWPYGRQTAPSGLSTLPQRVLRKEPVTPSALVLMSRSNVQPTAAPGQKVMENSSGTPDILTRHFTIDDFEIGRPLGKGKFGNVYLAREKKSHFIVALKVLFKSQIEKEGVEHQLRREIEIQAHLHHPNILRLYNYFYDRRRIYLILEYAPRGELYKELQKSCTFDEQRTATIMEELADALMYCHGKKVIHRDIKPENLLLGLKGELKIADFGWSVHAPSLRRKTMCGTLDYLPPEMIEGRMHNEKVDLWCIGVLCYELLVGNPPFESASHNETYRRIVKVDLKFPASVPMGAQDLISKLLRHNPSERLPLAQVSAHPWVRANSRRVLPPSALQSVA

On to `C[C@@H](Oc1nc(-c2ccc(OC(F)(F)F)c(F)c2)cc2ncccc12)[C@H]1CNC(=O)C1` [1 of WO 2011/092128], for which the IC50 was 1.53 µM on FLT3 (setting [4]), greater than 10 µM at Human GSK3beta and 5.09 µM in data set [1] (setting [5]).

As for `COc1cc(-c2cc(O[C@H](C)[C@H]3CNC(=O)C3)c3cccnc3c2)cc(OC)c1OC` [2 of WO 2013/014060], the IC50 was 7.39 µM at FLT3 (setting [4]), greater than 10 µM on Human GSK3beta and 16.9 µM in data set [1] (setting [5]). Also, in data set [2], the “microsomal stability Cl [% Qh]” value is recorded as 81 % Qh.

As to `COc1cc(-c2cc(O[C@H](C)[C@H]3CNC(=O)C3)c3cccnc3c2)ccc1O` [11 of WO 2013/014060], the IC50 on Human GSK3beta was greater than 10 µM; in data set [1] (setting [5]) it was 0.752 µM. Moreover, the “microsomal stability Cl [% Qh]” value in data set [2] came out at 24 % Qh.

Regarding `C[C@@H](Oc1cc(-c2ccc(CN3CCOCC3)cc2)cc2ncccc12)[C@H]1CNC(=O)C1` [43 of WO 2013/014060], the IC50 on FLT3 (setting [4]) was 0.157 µM; in data set [1] (setting [5]), 0.144 µM. The “microsomal stability Cl [% Qh]” value in data set [2] is listed as less than 23 % Qh.

Turning to `C[C@@H](Oc1nc(-c2ccc(N3CCOCC3)nc2)cc2ncccc12)[C@H]1CNC(=O)C1` [45 of WO 2011/092128], the “microsomal stability Cl [% Qh]” value in data set [2] turned out to be 53 % Qh.

On to `Cc1c(-c2cc(O[C@H](C)[C@H]3CNC(=O)C3)c3cccnc3c2)cnn1C` [112 of WO 2013/014060], for which the “microsomal stability Cl [% Qh]” value in data set [2] is recorded as less than 23 % Qh.

`CCCn1cc(-c2cc(O[C@H](C)[C@H]3CNC(=O)C3)c3cccnc3c2)cn1` [114 of WO 2013/014060]: in data set [2], the “microsomal stability Cl [% Qh]” value is given as 26 % Qh.

Turning to `CC(C)n1cc(-c2cc(O[C@H](C)[C@H]3CNC(=O)C3)c3cccnc3c2)cn1` [115 of WO 2013/014060], the “microsomal stability Cl [% Qh]” value in data set [2] is on record as less than 23 % Qh.

As for `C[C@@H](Oc1cc(-c2ccc(N3CCOCC3)cc2)cc2nn(C)cc12)[C@H]1CNC(=O)C1` [Example 22, (4R)-4-[(1R)-1-[2-Methyl-6-(4-morpholinophenyl)indazol-4-yl]oxyethyl]-pyrrolidin-2-one], the IC50 at Human GSK3beta is greater than 10 µM. For the same compound, the “microsomal stability Cl [% Qh]” value in data set [2] is given as 25 % Qh.

Turning to `C[C@@H](Oc1nc(-c2cnn([C@H]3CCOC3)c2)cc2nn(C)cc12)[C@H]1CNC(=O)C1` [Example 70, (4R)-4-[(1R)-1-[2-methyl-6-[1-[(3S)-tetrahydrofuran-3-yl]pyrazol-4-yl]pyrazolo[4,3-c]pyridin-4-yl]oxyethyl]-pyrrolidin-2-one], the values for the IC50 (on FLT3 (setting [6]); in data set [1] (setting [7]); in data set [3]) were 17 µM, greater than 50 µM and 34.5 nM, respectively.

For the compound `Cc1cc(-c2cc3nn(C)cc3c(O[C@H](C)[C@H]3CNC(=O)C3)n2)ccc1N1CCCS1(=O)=O` [Example 71, (4R)-4-[(1R)-1-[6-[4-(1,1-dioxo-1,2-thiazolidin-2-yl)-3-methyl-phenyl]-2-methyl-pyrazolo[4,3-c]pyridin-4-yl]oxyethyl]pyrrolidin-2-one], the IC50 on FLT3 (setting [6]) was 7.65 µM; in data set [1] (setting [7]), greater than 50 µM; in data set [3], 15 nM.

As to `C[C@@H](Oc1nc(-c2ccc3c(c2)CN(C)CC3)cc2nn(C)cc12)[C@H]1CNC(=O)C1` [Example 75, (4R)-4-[(1R)-1-[2-methyl-6-(2-methyl-3,4-dihydro-1H-isoquinolin-7-yl)pyrazolo[4,3-c]pyridin-4-yl]oxyethyl]-pyrrolidin-2-one], the IC50 on FLT3 (setting [6]) worked out at 1.59 µM; in data set [1] (setting [7]) it was 8.54 µM; in data set [3] it was 99.8 nM.

As to `C[C@@H](Oc1nc(-c2cnn(CCC(F)(F)F)c2)cc2nn(C)cc12)[C@H]1CNC(=O)C1` [Example 76, (4R)-4-[(1R)-1-[2-methyl-6-[1-(3,3,3-trifluoropropyl)-pyrazol-4-yl]pyrazolo[4,3-c]pyridin-4-yl]oxyethyl]-pyrrolidin-2-one], the values for the IC50 (at FLT3 (setting [6]); in data set [1] (setting [7]); in data set [3]) were 14.8 µM, 46.2 µM and 58.3 nM, respectively.

With `C[C@@H](Oc1nc(-c2cc3cccc(Cl)c3[nH]2)cc2nn(C)cc12)[C@H]1CNC(=O)C1` [Example 77, (4R)-4-[(1R)-1-[6-(7-chloro-1H-indol-2-yl)-2-methyl-pyrazolo[4,3-c]pyridin-4-yl]oxyethyl]pyrrolidin-2-on], the IC50 at FLT3 (setting [6]) was 3.75 µM; in data set [1] (setting [7]), 43.4 µM; in data set [3], 49.8 nM.

Regarding `C[C@@H](Oc1nc(-c2cnn(C3CC3)c2)cc2nn(C)cc12)[C@H]1CNC(=O)C1` [Example 78, (4R)-4-[(1R)-1-[6-(1-cyclopropylpyrazol-4-yl)-2-methyl-pyrazolo[4,3-c]pyridin-4-yl]oxyethyl]pyrrolidin-2-one], the figures for the IC50 (at FLT3 (setting [6]); in data set [1] (setting [7]); in data set [3]) were 22 µM, greater than 50 µM and 35.9 nM, respectively.

Take `COc1cc(-c2cc(O[C@H](C)[C@H]3CNC(=O)C3)c3cccnc3c2)cc(OC)c1OC` [example 2 of WO2013/014060, reference compound]: in data set [1] (setting [8]), the IC50 is 16.9 µM. The “human liver microsomal stability CI” value in data set [2] amounted to 81 % Qh.

Consider `COc1cc(-c2cc3ncccc3c(O[C@H](C)[C@H]3CNC(=O)C3)n2)cc(OC)c1Cl` [example 8 of WO 2011/092128, reference compound], for which the IC50 in data set [1] (setting [8]) was greater than 50 µM. Moreover, the “human liver microsomal stability CI” value in data set [2] turned out to be 77 % Qh.
